How the values were obtained:
KG1α cells [1] = assay: Cell viability in KG1α cells, WST assay; format: cell-based, human; details: 0.1 to 3 μM
Excerpt: (§1) The constructed cell lines were also diverse. Thus, in order to confirm the applicability to a wide range of therapeutic agents that are not therapeutic agents for specific types of acute leukemia, in the present invention, KG1α cells constructed by selecting only cells having a stem cell phenotype from KG1 cells, which are cell lines obtained from a person with acute myelogenous leukemia, were used. HL60 cells, which are cell lines obtained from a person with acute promyelocytic leukemia, and U937 cells, which are cell lines obtained from a person with histiocytic lymphoma, were used.
(§2) KG1α and HL60 cells were cultured in IMDM medium containing 20% FBS (fetal bovine serum), and U937 cells were cultured in RPMI 1640 medium containing 10% FBS. All cells were cultured in an incubator under conditions of 37° C. and 5% CO2, and subcultured once every 2 or 3 days and used in the experiment.
KG1α cells are cells resistant to idarubicin and cytarabine, which are the therapeutic agents for acute myeloid leukemia, and are refractory AML cells. KG1α cells cultured in Example 2-1 were cultured into a 96-well plate at 1×10^5 cells/well, and then cultured in an incubator at 37° C. and 5% CO2 for 16 hours or more for the stabilization of cells. […] At this time, DMSO was used as a control group. After 24 hours, each cell was treated with 10 μl of WST solution, reacted for 2 hours, and then absorbance was measured at 450 nm with a multi-scan machine, and the cell viability of KG1α cells was confirmed as shown in Table 4 below.

HL60 cells [2] = assay: Cell viability of HL60 cells, WST-1; format: cell-based, human; details: 24 hours, WST-1, FIG. 1A
Excerpt: as §1, §2
(§3) The HL60 cells or U937 cells cultured in Example 2-1 were inoculated into a 96-well plate at 1×10^5 cells/well, and then for the stabilization of cells, the cells were cultured in an incubator at 37° C. and 5% CO2 for 16 hours or more. Subsequently, the compound 1 synthesized in Example 1 was treated at concentrations of 0.1, 0.5 and 1 μM, respectively, and reacted for 24 hours. […] The absorbance was then measured at 450 nm with a multi-scan machine.

U937 cells = assay: Cell viability of U937 cells, WST-1; format: cell-based, human; details: 24 hours, WST-1, FIG. 1B
Excerpt: as §1, §2, §3

KG1α cells [3] = assay: Apoptosis or cell necrosis in KG1α cells, FACS (Annexin-V/PI) and western blot; format: cell-based, human; details: 0-2 μM, 24 hours, FIG. 2
Method: (§4) Cell death was typically known as apoptosis or cell necrosis. Thus, in order to confirm whether the death of acute leukemia cells induced by the compound 1 of the present invention was due to apoptosis or cell necrosis, fluorescence activated cell sorting (FACS) and western blot were performed.
(§5) First, in order to conduct FACS, KG1α cells or HL60 cells cultured in […] were inoculated in a 6-well plate at 1×10^7 cells/well, and for the stabilization of cells, the cells were cultured in an incubator at 37° C. and 5% CO2 for 16 hours or more. Subsequently, the compound 1 was treated at concentrations of 0, 0.1, 0.5, 1 and 2 μM, respectively, and cultured for 24 hours, and then the cells were recovered and washed with cold PBS. Only 1×10^6 cells were taken and resuspended with PBS, and then stained with Annexin-V (green fluorescence), which increases during apoptosis, and Pi (propidium iodide, red fluorescence), which […]. The degree of the two indicators were quantified by FACS, the FACS results for KG1α cells are shown in FIG. 2A, and the FACS results for HL60 cells are shown in FIG. 3A.
(§6) Next, in order to perform western blot, KG1α cells or HL60 cells cultured in Example 2-1 were inoculated into a 6-well plate at 1×10^7 cells/well. In order to stabilize the cells, the cells were cultured for 16 hours or more in an incubator at 37° C. and 5% CO2. […]

HL60 cells [4] = assay: Apoptosis or cell necrosis in HL60 cells, FACS (Annexin-V/PI) and western blot; format: cell-based, human; details: 0-2 μM, 24 hours, FIG. 3
Method: as §4, §5, §6

[5] = system: acute myelogenous leukemia mouse model in which FLT3-ITD was overexpressed; assay: Changes in monocyte cells in acute leukemia mouse model overexpressing FLT3-ITD; format: in vivo; details: 120 mg/kg in diet, 8 weeks, FACS, FIG. 4
Method: In order to confirm the change in the expression of the FLT3-ITD gene by Compound 1 of the present invention, peripheral blood and spleen were collected after 8 weeks from the animals of an experimental group in which Compound 1 of the present invention was mixed and administered in a diet at a concentration of 120 mg/kg using a mouse (jackson lab) that systemically overexpressed FLT3-ITD, and a control group to which only a solvent was administered (untreated group).
In the case of peripheral blood, cold 1×PBS was added to a small amount of blood, centrifuged, washed, to which RBC lysis buffer was added and reacted for 5 minutes at room temperature to remove red blood cells. […] The antibodies were reacted on ice at a ratio of 1:200 for 20 minutes, washed with 1×PBS, then resuspended with 1×PBS containing 1% FBS, and quantified by FACS, and shown in FIG. 4A.
In the case of the spleen, the cells were crushed on a mesh having a 40 μm hole, separated into single cells, and then washed with cold 1×PBS to which RBC lysis buffer was added and reacted at room temperature for 5 minutes to remove red blood cells. […] The antibodies were reacted on ice at a ratio of 1:200 for 20 minutes, washed with 1×PBS, resuspended in 1×PBS containing 1% FBS, and quantified by FACS, and shown in FIGS. 4B and 4C.

K562 cells = assay: Cell viability in chronic leukemia K562 cells, WST assay; format: cell-based, human; details: 0.1 to 5 μM
Method: K562 cells obtained from a person with chronic myeloid leukemia were cultured in an incubator under conditions of 37° C. and 5% CO2 using RPMI medium containing 10% FBS (fetal bovine serum), and subcultured once every two days and used in the experiment.
The K562 cells cultured in Example 4-1 were inoculated into a 96-well plate at 1×10^5 cells/well, and then, for the stabilization of cells, the cells were cultured in an incubator at 37° C. and 5% CO2 for 16 hours or more. Subsequently, among the compounds synthesized in Example 1, the compounds 1, 10, and 72 and 192 were treated at a concentration of 0.1 to 5 μM and then cultured for 4 hours. At this time, DMSO was used as a control group. After 4 hours of incubation, 10 μl of WST solution was added to each cell and then reacted for 2 hours.

BCR-ABL fusion gene = assay: Expression level of BCR-ABL fusion gene in K562 cells, western blot; format: cell-based, human; details: 0.5-2.5 μM, 6 hours, FIG. 5
Method: The BCR-ABL fusion gene, existing only in chronic myelogenous leukemia, generated and transmitted continuous cell growth signals to induce the growth of cancer cells. Thus, after chronic myeloid leukemia cells were treated with the compound of the present invention, western blot was used to confirm whether the expression level of the BCR-ABL fusion gene was reduced.
First, the K562 cells cultured in Example 4-1 were inoculated into a 60 mm plate at 5×10^6 cells/well, and then for the stabilization of cells, the cells were cultured in an incubator at 37° C. and 5% CO2 for 16 hours or more. The, the compound 1 was treated at concentrations of 0.5, 1, 1.5, 2 and 2.5 μM, respectively, and cultured for 6 hours, and then the cells were recovered. A protein extraction buffer (RIPA buffer) was added to the cells obtained in the above process, and reacted on ice for 30 minutes to break the cell membrane, which was centrifuged to remove a supernatant, and then the protein was extracted. The extracted protein was developed by electrophoresis using SDS-PAGE, and then transferred to the PVDF membrane. Then, the antibody related to the BCR-ABL fusion gene was reacted, and then the amount of the protein was confirmed using the ECL buffer, and Western blot results for the K562 cell line are shown in FIG. 5.

A549 (lung carcinoma) = assay: Cell viability in solid cancer cells, WST assay, A549; format: cell-based, human; details: A549, 1 to 30 μM, 6 hours
Excerpt: (§7) To confirm the possibility of use as a therapeutic agent for solid cancer, A549 cell line obtained from a […] with lung carcinoma, Hela cell line obtained from a person with cervix adenocarcinoma, HepG2 cell line obtained from a child with hepatocellular carcinoma, MCF7 cell line obtained from a person with breast adenocarcinoma, and Beas-2B cell line obtained from a normal lung for comparison with solid cancer cell line were used.
(§8) The A549 (lung carcinoma), Hela (cervix adenocarcinoma), HepG2 (hepatocellular carcinoma), MCF7 (breast carcinoma), and Beas-2B (normal lung) cell lines were used in DMEM medium containing 10% FBS, subcultured once every 2 days in an incubator under conditions of 37° C. and 5% CO2 and used in the experiment.
(§9) A549 (lung carcinoma), Hela (cervix adenocarcinoma), HepG2 (hepatocellular carcinoma), MCF7 (breast carcinoma), and Beas-2B (normal lung) cells cultured in Example 6-1 were inoculated into a 96-well plated at 1×10^4 cells/well, and then for the stabilization of cells, the cells were cultured in an incubator at 37° C. and 5% CO2 for 16 hours or more. Subsequently, among the compounds synthesized in Example 1, the compounds 1, 10 and 72 were treated at a concentration of 1 to 30 μM, and then cultured for 6 hours. At this time, DMSO and β-lapachone were used as the control group. After 4 hours of incubation, 10 μl of WST solution was added to each cell, the reaction was carried out for 2 hours, and the absorbance was measured at 450 nm with a multi-scan machine. The cell viabilities of A549 (lung carcinoma), Hela (cervix adenocarcinoma), HepG2 (hepatocellular carcinoma) and MCF7 (breast carcinoma) cells are shown in Table 4 and FIG. 6 below.

[6] = system: Hela (cervix adenocarcinoma); assay: Cell viability in solid cancer cells, WST assay, Hela; format: cell-based, human; details: 1 to 30 μM, 6 hours
Excerpt: as §7, §8, §9

[7] = system: HepG2 (hepatocellular carcinoma); assay: Cell viability in solid cancer cells, WST assay, HepG2; format: cell-based, human; details: HepG2, 1 to 30 μM, 6 hours
Excerpt: as §7, §8, §9

MCF7 (breast carcinoma) = assay: Cell viability in solid cancer cells, WST assay, MCF7; format: cell-based, human; details: MCF7, 1 to 30 μM, 6 hours
Excerpt: as §7, §8, §9

C57BL/6 mice = assay: Acute toxicity experiment, mortality in mice; format: in vivo; details: 120 mg/kg orally, 24 hours after administration
Method: This experiment was conducted to examine the acute toxicity to the animal body acutely (within 24 hours) when the compound 1 of the present invention was ingested in excess in a short period of time, and to determine the mortality rate. 20 C57BL/6 mice, which are common mice, were prepared, and ten mice were assigned to each group. Only 0.1% SLS (sodium lauryl sulfate) was administered to the control group, and the compound 1 was orally administered to the experimental group at a concentration of 120 mg/kg, respectively. As a result of examining each mortality rate 24 hours after administration, both the control group and the experimental group to which the compound 1 was administered survived.

[8] = system: A549, Hela, HepG2, MCF7 and Beas-2B cells; assay: Cell viability WST assay, all solid cancer and normal lung lines taken together; format: cell-based, human; details: 6 hours
Excerpt: as §7, §8, §9

IC50 (K562 cells; Homo sapiens, K562, 4 h)	IC50 (A549 (lung carcinoma); Homo sapiens)	IC50 ([6]; Homo sapiens)	IC50 ([7]; Homo sapiens)	IC50 (MCF7 (breast carcinoma); Homo sapiens)	Compound	IC50 (KG1α cells [1]; 24 hours)	IC50 (KG1α cells [1]; Homo sapiens, KG-1, 24 h)	IC50 (K562 cells; 4 hours)	killing effect compared with β-lapachone [8]	also measured
1 to 2 µM	6.5 µM	9.1 µM	12.6 µM	12.5 µM	O=C1C(=O)c2[nH]c(C3CCCO3)nc2-c2ccccc21 (stereo not drawn) [compound 72]	0.7 µM	0.5 to 1 µM	1.4 µM	killing effect similar to β-lapachone	–
0.9 µM	5.5 µM	7.7 µM	12.1 µM	14.1 µM	CCc1nc2c([nH]1)C(=O)C(=O)c1ccccc1-2 [compound 10]	0.5 µM	0.5 to 1 µM	–	killing effect similar to β-lapachone	–
–	–	–	–	–	CC1(C)CCC2=C(O1)c1ccccc1C(=O)C2=O [beta-rapacon, β-lapachone, reference compound]	–	–	–	–	IC50 (A549 (lung carcinoma)): 5 µM; IC50 [6]: 4.8 µM; IC50 [7]: 12.3 µM; IC50 (MCF7 (breast carcinoma)): 13.2 µM

Compound	IC50 (K562 cells; Homo sapiens, K562, 4 h)	IC50 (A549 (lung carcinoma); Homo sapiens)	IC50 ([6]; Homo sapiens)	IC50 ([7]; Homo sapiens)	IC50 (MCF7 (breast carcinoma); Homo sapiens)	IC50 (KG1α cells [1]; 24 hours)	IC50 (KG1α cells [1]; Homo sapiens, KG-1, 24 h)	IC50 (K562 cells; 4 hours)	killing effect compared with β-lapachone [8]	also measured
CC(C)c1nc2c([nH]1)C(=O)C(=O)c1ccccc1-2 [compound 1]	1 to 2 µM	5.1 µM	4.6 µM	10.1 µM	14.4 µM	0.5 µM	0.5 to 1 µM	1.6 µM	killing effect similar to β-lapachone	cell killing effect (cell viability), HL60 cells (HL60 cells [2]): concentration-dependent cell killing effects; cell killing effect (cell viability), U937 cells (U937 cells): concentration-dependent cell killing effects; apoptosis or cell necrosis, KG1α cells (KG1α cells [3]): died due to apoptosis; apoptosis or cell necrosis, HL60 cells (HL60 cells [4]): both apoptosis and cell necrosis occurred; suppression of proliferation of monocyte cells in peripheral blood and spleen [5]: excellent effect of suppressing the proliferation of monocyte cells; expression level of the BCR-ABL fusion gene (BCR-ABL fusion gene): decreased in a concentration-dependent manner; expression of phospho-bcr-abl (BCR-ABL fusion gene): also decreased; expression of phospho-stat5 (BCR-ABL fusion gene): also decreased; mortality, acute toxicity (C57BL/6 mice): survived

From patent US11684610B2, “Pharmaceutical composition including 1,2-naphthoquinone derivative compound for prevention or treatment of solid cancers or blood cancers” (YUNGJIN PHARM. CO., LTD., priority 2018, dated 2023)
